Measurements as given in the supplement of paper PMC10883282.

Assays:
Assay in all cases: relative viability vs DMSO control (72 h) (fraction); higher = more viable cells
SK-LMS-1 = tested on: SK-LMS-1
Summary of the method: (§1)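 Sarcoma cell lines went into 384-well plates at densities chosen to reach 80–90% confluence. After 24 h, each well received 2.5 µl of serially diluted compound, with source plates running from 10 mM to 0.0002 mM, and the plates were kept 72 h at 37 °C, 5% CO2, alongside 0.1% DMSO vehicle and a 5 µM positive control. Relative viability was derived from ATPLite readings as percent growth and averaged over up to triplicate wells. The data were then rescaled so that 1 stands for full and 0 for none.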

VA-ES-BJ = tested on: VA-ES-BJ
Summary of the method: as §1

KHOS-240S = tested on: KHOS-240S
Summary of the method: as §1

A204 = tested on: A204
Summary of the method: as §1

MES-SA = tested on: MES-SA
Summary of the method: as §1

SW1353 = tested on: SW1353
Summary of the method: as §1

SK-ES-1 = tested on: SK-ES-1
Summary of the method: as §1

RD = tested on: RD
Summary of the method: as §1

SW872 = tested on: SW872
Summary of the method: as §1

G401 = tested on: G401
Summary of the method: as §1

HS729 = tested on: HS729
Summary of the method: as §1

SW982 = tested on: SW982
Summary of the method: as §1

COc1cc2ncnc(Nc3cccc(Cl)c3F)c2cc1OC(=O)N1CCN(C)C[C@H]1C [AZD-3759]
Conditions | relative viability
A204, 0.00017 µM | 1.051
A204, 0.00051 µM | 1.1
A204, 0.00152 µM | 1.09
A204, 0.00457 µM | 1.08
A204, 0.01372 µM | 1.05
A204, 0.04115 µM | 1.08
A204, 0.1235 µM | 1.04
A204, 0.3704 µM | 1.04
A204, 1.111 µM | 1.03
A204, 3.333 µM | 0.954
A204, 10 µM | 0.883
G401, 0.00017 µM | 1.03
G401, 0.00051 µM | 1.06
G401, 0.00152 µM | 1.04
G401, 0.00457 µM | 1.01
G401, 0.01372 µM | 1.02
G401, 0.04115 µM | 1.02
G401, 0.1235 µM | 1.04
G401, 0.3704 µM | 1.04
G401, 1.111 µM | 1
G401, 3.333 µM | 0.985
G401, 10 µM | 0.939
HS729, 0.00017 µM | 1.05
HS729, 0.00051 µM | 0.958
HS729, 0.00152 µM | 0.934
HS729, 0.00457 µM | 0.971
HS729, 0.01372 µM | 0.966
HS729, 0.04115 µM | 0.875
HS729, 0.1235 µM | 0.94
HS729, 0.3704 µM | 0.878
HS729, 1.111 µM | 0.856
HS729, 3.333 µM | 0.812
HS729, 10 µM | 0.781
KHOS-240S, 0.00017 µM | 1.04
KHOS-240S, 0.00051 µM | 1.06
KHOS-240S, 0.00152 µM | 1.06
KHOS-240S, 0.00457 µM | 1.06
KHOS-240S, 0.01372 µM | 1.05
KHOS-240S, 0.04115 µM | 1.04
KHOS-240S, 0.1235 µM | 1.05
KHOS-240S, 0.3704 µM | 1.04
KHOS-240S, 1.111 µM | 0.9537
KHOS-240S, 3.333 µM | 0.976
KHOS-240S, 10 µM | 0.878
MES-SA, 0.00017 µM | 0.938
MES-SA, 0.00051 µM | 0.921
MES-SA, 0.00152 µM | 0.953
MES-SA, 0.00457 µM | 0.917
MES-SA, 0.01372 µM | 0.94
MES-SA, 0.04115 µM | 0.929
MES-SA, 0.1235 µM | 0.921
MES-SA, 0.3704 µM | 0.891
MES-SA, 1.111 µM | 0.902
MES-SA, 3.333 µM | 0.8425
MES-SA, 10 µM | 0.777
RD, 0.00017 µM | 1.04
RD, 0.00051 µM | 1.1
RD, 0.00152 µM | 1.1
RD, 0.00457 µM | 1.1
RD, 0.01372 µM | 1.11
RD, 0.04115 µM | 1.09
RD, 0.1235 µM | 1.09
RD, 0.3704 µM | 1.12
RD, 1.111 µM | 1.08
RD, 3.333 µM | 1.06
RD, 10 µM | 0.97
SK-ES-1, 0.00017 µM | 1.09
SK-ES-1, 0.00051 µM | 0.999
SK-ES-1, 0.00152 µM | 1.06
SK-ES-1, 0.00457 µM | 1.01
SK-ES-1, 0.01372 µM | 1.06
SK-ES-1, 0.04115 µM | 1.06
SK-ES-1, 0.1235 µM | 0.978
SK-ES-1, 0.3704 µM | 0.999
SK-ES-1, 1.111 µM | 1.02
SK-ES-1, 3.333 µM | 0.908
SK-ES-1, 10 µM | 0.83
SK-LMS-1, 0.00017 µM | 1.14
SK-LMS-1, 0.00051 µM | 1.12
SK-LMS-1, 0.00152 µM | 1.08
SK-LMS-1, 0.00457 µM | 1.09
SK-LMS-1, 0.01372 µM | 1.09
SK-LMS-1, 0.04115 µM | 1.09
SK-LMS-1, 0.1235 µM | 1.09
SK-LMS-1, 0.3704 µM | 1.088
SK-LMS-1, 1.111 µM | 1.07
SK-LMS-1, 3.333 µM | 1.02
SK-LMS-1, 10 µM | 1.05
SW872, 0.00017 µM | 1.07
SW872, 0.00051 µM | 1.1
SW872, 0.00152 µM | 1.06
SW872, 0.00457 µM | 1.058
SW872, 0.01372 µM | 1.032
SW872, 0.04115 µM | 1.05
SW872, 0.1235 µM | 1.04
SW872, 0.3704 µM | 1.02
SW872, 1.111 µM | 1.04
SW872, 3.333 µM | 0.9635
SW872, 10 µM | 0.828
SW982, 0.00017 µM | 1.06
SW982, 0.00051 µM | 1.02
SW982, 0.00152 µM | 1.03
SW982, 0.00457 µM | 1.06
SW982, 0.01372 µM | 1.07
SW982, 0.04115 µM | 1.04
SW982, 0.1235 µM | 1.07
SW982, 0.3704 µM | 1.07
SW982, 1.111 µM | 1.01
SW982, 3.333 µM | 0.945
SW982, 10 µM | 0.889
SW1353, 0.00017 µM | 1.02
SW1353, 0.00051 µM | 1.02
SW1353, 0.00152 µM | 1.04
SW1353, 0.00457 µM | 0.998
SW1353, 0.01372 µM | 0.964
SW1353, 0.04115 µM | 0.983
SW1353, 0.1235 µM | 0.979
SW1353, 0.3704 µM | 0.868
SW1353, 1.111 µM | 0.877
SW1353, 3.333 µM | 0.8196
SW1353, 10 µM | 0.769
VA-ES-BJ, 0.00017 µM | 1.03
VA-ES-BJ, 0.00051 µM | 1.05
VA-ES-BJ, 0.00152 µM | 1.04
VA-ES-BJ, 0.00457 µM | 1.02
VA-ES-BJ, 0.01372 µM | 1.02
VA-ES-BJ, 0.04115 µM | 0.992
VA-ES-BJ, 0.1235 µM | 0.986
VA-ES-BJ, 0.3704 µM | 0.949
VA-ES-BJ, 1.111 µM | 0.975
VA-ES-BJ, 3.333 µM | 0.972
VA-ES-BJ, 10 µM | 0.952
